Measurements taken from ChEMBL document CHEMBL1131527, “Estradiol-mimetic probes. Preparation of 17 alpha-(6-aminohexynyl)estradiol biotin, fluorescein and acridinium conjugates” (Bioorg Med Chem Lett, 1998).
pKd: −log10 of the molar value.

Assay: Equilibrium dissociation constant of the compound
Assay type: ADME

Compound	pKd
Cc1ccc(S(=O)(=O)N(CCCC(=O)NCCCCC#C[C@]2(O)CC[C@H]3[C@@H]4CCc5cc(O)ccc5[C@H]4CC[C@@]32C)C(=O)c2c3ccccc3[n+](CCCS(=O)(=O)[O-])c3ccccc23)cc1	6.70
C[C@]12CC[C@@H]3c4ccc(O)cc4CC[C@H]3[C@@H]1CC[C@@]2(O)C#CCCCCNC(=O)c1ccc2c(c1)C(=O)OC21c2ccc(O)cc2Oc2cc(O)ccc21	7.01
C[C@]12CC[C@@H]3c4ccc(O)cc4CC[C@H]3[C@@H]1CC[C@@]2(O)C#CCCCCNC(=O)CCCCC1SC[C@@H]2NC(=O)N[C@H]12 (stereo partly drawn)	6.85
